Test results from PubChem BioAssay (NCI).
Where “and” joins values, the source holds several entries; their conditions need not be identical. Identical values can stand only once.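 Tested at 5 concentrations; 48 h exposure; 96-well plates; endpoints linearly interpolated, else capped at highest concentration. GI50 is the concentration that inhibits growth by half. TGI denotes the concentration required for complete inhibition of growth.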

Assays:
Test in all cases: inhibition of tumour cell growth, NCI panel, 48 h
A549 NSCLC = test system: A549 NSCLC
RXF 393 renal = test system: RXF 393 renal
M14 melanoma = test system: M14 melanoma
SK-MEL-5 melanoma = test system: SK-MEL-5 melanoma
MDA-MB-231 breast = test system: MDA-MB-231 breast
EKVX NSCLC = test system: EKVX NSCLC
OVCAR-8 ovarian = test system: OVCAR-8 ovarian
UO-31 renal = test system: UO-31 renal

SMILES | GI50 (A549 NSCLC) | TGI (A549 NSCLC) | GI50 (RXF 393 renal) | TGI (RXF 393 renal) | GI50 (M14 melanoma) [µM] | TGI (M14 melanoma) [µM] | GI50 (SK-MEL-5 melanoma) | TGI (SK-MEL-5 melanoma) | GI50 (MDA-MB-231 breast) | TGI (MDA-MB-231 breast) | GI50 (EKVX NSCLC) | TGI (EKVX NSCLC) | GI50 (OVCAR-8 ovarian) | TGI (OVCAR-8 ovarian) | GI50 (UO-31 renal) | TGI (UO-31 renal)
C=CCC(N[C@@H](CO)c1ccccc1)c1ccccn1 (some centres undefined) | > 100 µM | > 100 µM | > 100 µM | > 100 µM | > 100 | > 100 | 56.9 µM | > 100 µM | > 100 µM | > 100 µM | 75 µM | > 100 µM | > 100 µM | > 100 µM | 93.4 µM | > 100 µM
CCN1/C(=C/C=C/C=C/c2sc3ccccc3[n+]2CC)Sc2ccccc21 | 0.332 µM | 2.59 µM | 0.805 µM | 2.53 µM | 0.416 | 1.49 | 0.314 µM | 1.42 µM | 0.302 µM | 1.48 µM | 0.122 µM | 0.798 µM | 0.398 µM | 2.58 µM | 1.66 µM | 4.4 µM
Clc1ccccc1-c1nc(-c2ccncc2)no1 |  | > 100 µM |  | > 100 µM |  | > 100 |  | 56.4 µM |  | > 100 µM |  | > 100 µM |  | > 100 µM |  | > 100 µM
COc1ccc(S(=O)(=O)NC2=NCCN2C(=S)SN2CCn3c2nsc3=S)cc1OC | 27.9 µM | > 100 µM | 3.1 µM | 13 µM | 20.4 | 48.8 | 25.3 µM | 74.1 µM | 26.3 µM | > 100 µM | 50.1 µM | > 100 µM | 29.5 µM | > 100 µM | 35.8 µM | > 100 µM
O=C(Nc1ccc(Cl)cc1F)c1cc(F)ccc1O | 2.79 µM | > 45.8 µM | 0.864 µM | 4.28 µM | 1.11 | 5.44 | 0.274 µM | 0.847 µM | 0.761 µM | 3.81 µM | 1.88 µM | 9.97 µM | 2.4 µM | > 70.8 µM | 0.314 µM | 3.38 µM
CNS(=O)(=O)c1ccccc1C(=N)c1ccccc1 |  | > 100 µM |  | > 100 µM |  | > 100 |  | > 100 µM |  | > 100 µM |  | > 100 µM |  | > 100 µM |  | > 100 µM
CCc1nc(-n2c(CC)nc3ccccc3c2=O)nc(N)c1-c1ccc(Cl)cc1 | 2.38 µM | > 100 µM | > 100 µM | > 100 µM | 52.6 | > 100 | 6.84 µM | > 100 µM | > 100 µM | > 100 µM | 99 µM | > 100 µM | 6.65 µM | > 100 µM | 23.7 µM | > 100 µM
O=[N+]([O-])c1cccc(/C=C/c2ccccn2)c1 | 27.9 µM | > 100 µM | 8.6 µM | > 100 µM | 52.1 | > 100 | 28.7 µM | > 100 µM | 23 µM | > 100 µM | 43.8 µM | > 100 µM | 45 µM | > 100 µM | 23.3 µM | > 100 µM
OC(COc1cccc2ccccc12)CN1CCN(c2ccc(Cl)cc2)CC1 (centres undefined) | 19.4 µM | > 100 µM | 28.6 µM | 75.9 µM | 64.8 | > 100 | 55.8 µM | > 100 µM | 19.5 µM | 69 µM | 21.3 µM | > 100 µM | 15.2 µM | 41 µM | 15.5 µM | 36.1 µM
COc1cc(CNc2nc3cc(N)cc(N)c3nc2-c2ccccc2)cc(OC)c1OC | 4.28 µM | 33.1 µM | 7.47 µM | 19.9 µM | 9.52 | 18.2 | 0.721 µM | 7.79 µM | 7.3 µM | 15.2 µM | 1.94 µM | 8.31 µM | 7 µM | 14.8 µM | 11.1 µM | > 50 µM
CCC(C(=O)c1cccs1)C(O)(C(F)(F)F)C(F)(F)F (centres undefined) |  | > 100 µM |  | > 100 µM |  | > 100 |  | > 100 µM |  | > 100 µM |  | > 100 µM |  | > 100 µM |  | > 100 µM
CCCCCCCCCCCCOC1C(CNCC2OC3OC(C)(C)OC3C2NC(=O)Nc2ccc(C(F)(F)F)cc2)OC2OC(C)(C)OC21 (centres undefined) | 8.53 µM | 22 µM | 3.37 µM | 8.99 µM | 8.27 | 15.8 | 8.15 µM | 15.1 µM | 2.94 µM | 7.37 µM | 7.49 µM | 14.5 µM | 6.81 µM | 18.1 µM | 7.33 µM | 16.3 µM
COc1cc2cn3c4ccc(O)cc4nc(N)c3c2cc1OC | 0.839 µM | 12.9 µM | 0.283 µM | 2.5 µM | 0.167 | 8.33 | 0.0734 µM | 0.505 µM | 2 µM | 15.6 µM | 2.79 µM | 15.4 µM | 0.773 µM | 12.6 µM | 0.235 µM | 2.48 µM
CSC1=Nc2c(c(C)c(-c3ccccc3)n2CCCCl)C2=NC(=O)CN12 | 7.68 µM | 65.8 µM | 11.3 µM | 29.8 µM | 3.32 | 15.2 | 3.49 µM | 14.1 µM | 5.64 µM | 23.8 µM | 6.89 µM | 31 µM | 16.3 µM | 72.8 µM | 10.5 µM | 28.6 µM
CC(N)(Cc1c[nH]c2ccccc12)C(=O)O (centres undefined) | > 2500 µM | > 2500 µM | > 2500 µM | > 2500 µM | > 2500 | > 2500 | 2350 µM | > 2500 µM | > 2500 µM | > 2500 µM | > 2500 µM | > 2500 µM | > 2500 µM | > 2500 µM | > 2500 µM | > 2500 µM
O=c1c2[nH]c3ccccc3c2nc2n1CCS2 | > 100 µM | > 100 µM | > 100 µM | > 100 µM | > 100 | > 100 | > 100 µM | > 100 µM | > 100 µM | > 100 µM | 23.6 µM | > 100 µM | > 100 µM | > 100 µM | 47.2 µM | > 100 µM
Cc1cc(S(N)(=O)=O)c(S/C(=N\Nc2ccc([N+](=O)[O-])cc2)c2ccc(O)cc2)cc1Cl | 4.06 µM | 29.6 µM | 0.676 µM | 3.5 µM | 2.61 | 7.15 | 1.86 µM | 3.38 µM | 1.78 µM | 4.67 µM | 6.82 µM | 22.6 µM | 5.72 µM | 21.7 µM | 5.66 µM | 23 µM
O=C(C[C@@]1(O)C(=O)Nc2c(Cl)ccc(Cl)c21)c1ccc(C2CC2)cc1 | 0.729 µM | 24 µM | 0.257 µM | 4.03 µM | 0.184 | 13.8 | 0.355 µM | 11.6 µM | 0.798 µM | 15.2 µM | 0.631 µM | 30.7 µM | 0.577 µM | 19.3 µM | 0.585 µM | 18.5 µM
FC(F)(F)c1[nH]ncc1-c1nc2c(N3CCCCC3)cc3[nH]ncc3c2c2c1CCCC2 | 0.816 µM | > 12.5 µM | 0.395 µM | 1.07 µM | 0.6 | 1.42 | 0.637 µM | 1.5 µM | 0.806 µM | 3.08 µM | 0.868 µM | 2.48 µM | 0.825 µM | > 50 µM | 0.873 µM | 3.01 µM
Cc1cc(O)c(C2=NN(c3ccc(S(N)(=O)=O)cc3)C(c3ccccc3O)C2)cc1Cl (centres undefined) | 2.67 µM | 7.85 µM | 2.05 µM | 5.78 µM | 1.75 | 3.39 | 5.6 µM | 18.2 µM | 1.91 µM | 5.11 µM | 1.96 µM | 6.52 µM | 2.8 µM | 8.54 µM | 0.181 µM | 5.65 µM
COc1ccc(-c2ccc3ncc4c(c3c2)n(-c2ccc(N3CCNCC3)c(C(F)(F)F)c2)c(=O)n4C)cn1 | < 0.01 µM and 0.00607 µM | 0.153 µM and 0.329 µM | < 0.01 µM and 0.0018 µM | < 0.0323 µM and 0.00977 µM | 0.00455 | 0.0621 | 0.0131 µM and 0.0102 µM | 0.0774 µM and 0.038 µM | < 0.01 µM and 0.00601 µM | 0.823 µM and 0.446 µM | < 0.01 µM and 0.00426 µM | 0.0379 µM and 0.258 µM | < 0.01 µM and 0.00948 µM | 0.332 µM and 0.396 µM | < 0.01 µM and 0.00417 µM | 0.196 µM and 0.0269 µM
Cc1ccc(Nc2[nH]c(C(=O)c3ccc(Cl)cc3)c(N)c2C(=S)Nc2ccccc2)nc1 | 37.7 µM | > 100 µM | 35.9 µM | > 100 µM | 77.8 | > 100 | 14 µM | 33.7 µM | 21.4 µM | 64.7 µM | 35.5 µM | > 100 µM | 22 µM | 97.3 µM | 24.3 µM | 86.1 µM
Cc1c2cnccc2c(C)c2c1c1cc(C(=O)O)ccc1n2C | 1.68 µM | 6.68 µM | 0.666 µM | 2.33 µM | 1.3 | 3.74 | 0.897 µM | 2.44 µM | 1.51 µM | 5.81 µM | 1.53 µM | 5.74 µM | 0.675 µM | 8.3 µM | 0.49 µM | 4.21 µM
